Measurements published in patent US20090312306A1, “TETRAHYDRO-5H-PYRIDO[2,3-D]AZEPINES AS 5-HT2C LIGANDS” (priority 2006, published 2009).

target: h5-HT2c (vsv) (Homo sapiens, UniProt P28335, I156V/I160V/N158S); test: cell-based
Sequence (P28335 33-458 I156V/N158S/I160V limits assumed): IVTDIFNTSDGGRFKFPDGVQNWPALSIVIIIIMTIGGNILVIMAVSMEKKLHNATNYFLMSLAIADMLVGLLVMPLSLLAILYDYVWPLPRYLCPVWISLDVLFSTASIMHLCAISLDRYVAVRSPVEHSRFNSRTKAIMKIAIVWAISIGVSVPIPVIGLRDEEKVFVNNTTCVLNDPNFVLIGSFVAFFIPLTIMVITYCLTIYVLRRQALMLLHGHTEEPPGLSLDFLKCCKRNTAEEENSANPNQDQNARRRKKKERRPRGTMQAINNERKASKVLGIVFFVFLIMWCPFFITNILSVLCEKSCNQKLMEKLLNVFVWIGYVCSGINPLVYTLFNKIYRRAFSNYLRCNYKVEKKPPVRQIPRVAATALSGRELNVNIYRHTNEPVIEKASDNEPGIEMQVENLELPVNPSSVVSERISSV

Compared with `CC(C)C1CNCCc2ccc(N3CCCCCC3)nc21` (stereo not drawn), `CC(C)C1CNCCc2ccc(N3CCCCC3)nc21` (stereo not drawn) is 2.1-fold lower in EC50: 139 nM for the first, 65.4 nM for the second.

Going from `O=C1CCN(c2ccc3c(n2)CCNCC3)CC1` to `c1cc2c(nc1N1CCCCC1)CCNCC2`, the EC50 falls from 299 nM to 10.6 nM (28-fold). The second is the more potent here.

First: C[C@@H]1CNCCc2ccc(N3CCCCC3)nc21
Second: CC1CNCCc2ccc(N3CCCCC3)nc21 (stereo not drawn)
The EC50 of the first is 6.2-fold lower: 2.1 nM for the first, 13.1 nM for the second.

Going from `c1cc2c(nc1N1CCCCCC1)CCNCC2` to `c1cc2c(nc1N1CCCNCC1)CCNCC2`, the EC50 rises from 10.2 nM to 262 nM (26-fold). The first is the more potent here.

Going from `CCN(C)c1ccc2c(n1)CCNCC2` to `CN(C)c1ccc2c(n1)CCNCC2`, the EC50 rises from 18 nM to 213 nM (12-fold). The first is the more potent here.

First: CC1CNCCc2ccc(N3CCCCCC3)nc21 (stereo not drawn)
Second: CCC1CNCCc2ccc(N3CCCCC3)nc21 (stereo not drawn)
The EC50 of the first is 2.6-fold lower: 6.2 nM for the first, 16.4 nM for the second. The first is the more potent here.

Compared with `Brc1cc2c(nc1N1CCCCC1)CCNCC2`, `Clc1cc2c(nc1N1CCCCC1)CCNCC2` is 2.6-fold lower in EC50: 192 nM for the first, 74.2 nM for the second. The second is the more potent here.

First: c1cc2c(nc1N1CCOCC1)CCNCC2
Second: c1cc2c(nc1N1CCCOCC1)CCNCC2
The EC50 of the first is 6.1-fold higher: 63.9 nM for the first, 10.5 nM for the second. The second is the more potent here.

First: FC1CCN(c2nc3c(cc2Cl)CCNCC3)CC1
Second: Clc1cc2c(nc1N1CCOCC1)CCNCC2
The EC50 of the first is 1.8-fold lower: 95.8 nM for the first, 176 nM for the second.

First: CCN(C)c1nc2c(cc1Br)CCNCC2
Second: COc1nc2c(cc1Br)CCNCC2
The EC50 of the first is 1.6-fold higher: 100 nM for the first, 64.1 nM for the second. The second is the more potent here.

`CC(C)N(C)c1ccc2c(n1)CCNCC2` and `CCN(CC)c1ccc2c(n1)CCNCC2` are within 1.5-fold of each other in EC50: 85.4 nM for the first, 77.3 nM for the second.

`CC1CNCCc2ccc(N3CCOCC3)nc21` (stereo not drawn) and `C[C@@H]1CNCCc2ccc(N3CCOCC3)nc21` are within 1.5-fold of each other in EC50: 47.7 nM for the first, 58.1 nM for the second.

First: CC1CNCCc2ccc(N3CCC(F)CC3)nc21 (stereo not drawn)
Second: CC1CNCCc2ccc(N3CCCOCC3)nc21 (stereo not drawn)
The EC50 of the first is 1.6-fold lower: 13.6 nM for the first, 21.7 nM for the second.

Going from `c1cc2c(nc1N1CCSCC1)CCNCC2` to `[O-][S+]1CCN(c2ccc3c(n2)CCNCC3)CC1`, the EC50 rises from 2.3 nM to 5.1 nM (2.2-fold).

Going from `Clc1cc2c(nc1N1CCCOCC1)CCNCC2` to `FC1(F)CCCN(c2ccc3c(n2)CCNCC3)CC1`, the EC50 falls from 67.8 nM to 24 nM (2.8-fold).

First: CC1CNCCc2ccc(N3CCC(F)(F)CC3)nc21 (stereo not drawn)
Second: FC1(F)CCN(c2ccc3c(n2)CCNCC3)CC1
The EC50 of the first is 2.6-fold higher: 29.4 nM for the first, 11.4 nM for the second. The second is the more potent here.

Compared with `CCC1CNCCc2ccc(N(C)CC)nc21` (stereo not drawn), `CCN(C)c1ccc2c(n1)[C@H](C)CNCC2` is 4.3-fold lower in EC50: 35.9 nM for the first, 8.3 nM for the second. The second is the more potent here.

Compared with `c1cc2c(nc1N1CCC3(CC1)OCCO3)CCNCC2`, `FC1CCN(c2ccc3c(n2)CCNCC3)CC1` is 37-fold lower in EC50: 290 nM for the first, 7.9 nM for the second. The second is the more potent here.

`C=C(C)c1ccc2c(n1)CCNCC2` and `CC(C)(C)c1ccc2c(n1)CCNCC2` are within 1.5-fold of each other in EC50: 79.1 nM for the first, 106 nM for the second.

First: CC(C)c1ccc2c(n1)C(C)CNCC2 (stereo not drawn)
Second: CCN(C)c1ccc2c(n1)C(C)CNCC2 (stereo not drawn)
The EC50 of the first is 10-fold higher: 295 nM for the first, 29.2 nM for the second. The second is the more potent here.

`c1cc2c(nc1N1C3CCCC1CC3)CCNCC2` and `CCC1CNCCc2ccc(N3CCOCC3)nc21` (stereo not drawn) are within 1.5-fold of each other in EC50: 138 nM for the first, 101 nM for the second.
